Test results: ChEMBL document CHEMBL3600349 (Bioorg Med Chem Lett, 2015)

Assays:
[1] = Lipophilicity, log P of the compound by HPLC analysis; assay type: physicochemical
[2] = Half life in rat liver microsomes; assay type: ADME
[3] = Intrinsic clearance in human hepatocytes assessed per 10^6 cells; assay type: ADME, cell-based, Hepatocyte; details: read-out: CLH
[4] = target: Melanin-concentrating hormone receptor 1 (Homo sapiens, UniProt Q99705); experiment: Displacement of [125I]-MCH from human MCH-R1 expressed in CHO/Galpha16 cells after 60 mins by scintillation counting; assay type: cell-based
U-937 = experiment: Toxicity in human U937 cells assessed as first effect concentration for phospholipidosis by nile red uptake assay; assay type: cell-based
hERG (KCNH2) = hERG (KCNH2) (Homo sapiens, UniProt Q12809); experiment: Inhibition of human ERG at 10 uM by patch clamp assay
Chain of hERG (KCNH2) (Q12809 whole entry): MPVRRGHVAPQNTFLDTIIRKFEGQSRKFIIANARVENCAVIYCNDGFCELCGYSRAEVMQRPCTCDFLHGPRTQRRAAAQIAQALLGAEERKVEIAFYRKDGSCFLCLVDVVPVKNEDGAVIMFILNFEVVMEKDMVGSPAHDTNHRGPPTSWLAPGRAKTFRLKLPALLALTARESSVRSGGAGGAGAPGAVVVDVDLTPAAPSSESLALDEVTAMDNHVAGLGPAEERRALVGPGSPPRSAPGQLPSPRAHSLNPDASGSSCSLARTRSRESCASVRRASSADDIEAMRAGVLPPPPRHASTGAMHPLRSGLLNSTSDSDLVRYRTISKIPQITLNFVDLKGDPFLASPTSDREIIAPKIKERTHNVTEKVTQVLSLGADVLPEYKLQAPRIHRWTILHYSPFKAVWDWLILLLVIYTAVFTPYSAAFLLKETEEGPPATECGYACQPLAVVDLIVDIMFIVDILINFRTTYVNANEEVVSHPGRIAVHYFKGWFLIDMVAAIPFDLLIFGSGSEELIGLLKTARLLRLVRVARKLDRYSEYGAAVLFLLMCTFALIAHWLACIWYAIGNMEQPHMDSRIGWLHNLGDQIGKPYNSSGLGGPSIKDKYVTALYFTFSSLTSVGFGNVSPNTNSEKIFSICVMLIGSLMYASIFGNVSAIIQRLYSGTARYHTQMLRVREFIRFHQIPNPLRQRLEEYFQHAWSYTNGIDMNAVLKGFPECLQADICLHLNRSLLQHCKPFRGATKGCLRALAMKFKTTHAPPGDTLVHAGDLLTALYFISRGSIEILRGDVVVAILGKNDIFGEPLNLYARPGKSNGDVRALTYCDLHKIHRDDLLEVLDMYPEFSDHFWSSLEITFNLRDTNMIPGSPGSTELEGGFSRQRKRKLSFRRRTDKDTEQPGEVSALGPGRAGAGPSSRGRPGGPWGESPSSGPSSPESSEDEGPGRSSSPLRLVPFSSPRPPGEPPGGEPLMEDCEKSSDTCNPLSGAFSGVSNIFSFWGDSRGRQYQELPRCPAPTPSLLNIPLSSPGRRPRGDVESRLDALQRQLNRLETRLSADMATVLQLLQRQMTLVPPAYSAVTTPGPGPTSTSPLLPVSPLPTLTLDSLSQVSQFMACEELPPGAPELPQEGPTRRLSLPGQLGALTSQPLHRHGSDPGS

Chain of Melanin-concentrating hormone receptor 1 (Q99705 whole entry): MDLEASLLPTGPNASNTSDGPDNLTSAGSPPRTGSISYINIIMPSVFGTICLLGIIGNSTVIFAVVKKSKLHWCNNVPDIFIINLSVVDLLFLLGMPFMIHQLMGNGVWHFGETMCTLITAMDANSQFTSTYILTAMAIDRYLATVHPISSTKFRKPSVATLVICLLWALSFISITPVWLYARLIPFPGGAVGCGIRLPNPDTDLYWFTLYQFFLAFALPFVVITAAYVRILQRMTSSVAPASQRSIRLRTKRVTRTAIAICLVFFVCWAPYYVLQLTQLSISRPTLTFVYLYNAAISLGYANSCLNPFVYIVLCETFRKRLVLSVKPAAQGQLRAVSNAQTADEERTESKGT

| Structure (SMILES) | logP [1] | half-life [2] | hepatocyte CLint [3] | IC50 [4] | Activity (U-937) | inhibition at 10 µM (hERG (KCNH2)) |
| --- | --- | --- | --- | --- | --- | --- |
| CN(C)Cc1ccc(C(=O)Cn2ccc(OCc3ccc(Cl)cn3)cc2=O)cc1 | 2.3 | > 45 min | 69 µL/min/1e6 cells | 41 nM | – | – |
| CN(C)Cc1ccc(C(=O)Cn2ccc(OCc3ccc(Br)cn3)cc2=O)cc1 | 2.5 | 32 min | 66 µL/min/1e6 cells | 28 nM | – | – |
| Cc1cc(CN(C)C)ccc1C(=O)Cn1ncc(OCc2ccc(Br)cn2)cc1=O | 3.4 | 29 min | 12 µL/min/1e6 cells | – | 50 µM | – |
| Cc1cc(CN(C)C)ccc1C(=O)Cn1ccc(OCc2ccc(Cl)cn2)cc1=O | 2.7 | 44 min | 14 µL/min/1e6 cells | 33 nM | 50 µM | 41% |
